# Experimental data as given in patent US5932575A, “Cardiac diseases improving agents” (Kureha Chemical Industry Co., Ltd., priority 1997, dated 1999).
# Legend:
# [1] = target: T1, type 2 (AT2) receptor (Bos taurus, UniProt G5E6F7); assay: Affinity to angiotensin II type 2 receptor (binding assay); set-up: species or system bovine; conditions: 37° C., one hour
# T1 construct: Receptor: Derived from bovine cerebellum; from tissue; host or cells: bovine cerebellum
# T1 sequence (G5E6F7 1-362): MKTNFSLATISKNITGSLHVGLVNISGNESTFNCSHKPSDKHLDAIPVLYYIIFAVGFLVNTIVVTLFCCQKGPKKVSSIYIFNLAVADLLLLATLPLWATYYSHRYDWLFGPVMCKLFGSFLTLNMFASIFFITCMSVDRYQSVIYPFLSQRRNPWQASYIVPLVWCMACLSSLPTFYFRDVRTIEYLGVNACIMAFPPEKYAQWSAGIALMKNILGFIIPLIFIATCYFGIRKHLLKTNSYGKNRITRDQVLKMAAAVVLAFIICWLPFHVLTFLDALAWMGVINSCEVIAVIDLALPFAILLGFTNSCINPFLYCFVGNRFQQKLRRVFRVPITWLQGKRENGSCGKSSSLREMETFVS
# Procedure: Practically, determination of total binding of each compound was carried out as follows. A mixture of 0.025 ml of a predetermined concentration of test compound prepared by dissolving in DMSO, dilution with a buffer attached to the drug discovery system to 2-fold solution, 0.025 ml of a tracer and 0.2 ml of a receptor to make total volume of 0.25 ml was incubated at room temperature for three hours for type 1 angiotensin II (AT1) receptor or at 37° C. for one hour for type 2 (AT2) receptor. The reaction mixture was filtered under suction with CF/C filter paper for AT1 and CF/B filter paper for AT2. The used filter paper having the combination of the tracer and the receptor was determined with a γ-well counter (ARC-500, Aloka). Non-specific binding was determined with a similar manner by adding a large excess amount of displacer. The specific binding of test compound at a predetermined concentration was obtained by subtracting non-specific binding from respective total binding. In AT1, and AT2, a predetermined concentrations of test compound and a control compound were used to give the inhibitory rate, IC50 value of 50% inhibition, or binding inhibitory % at 100 μM, for binding of a radioactive ligand (tracer) and the receptor.
# Receptor: Derived from bovine cerebellum
# Tracer: ^125 ITyr^4angiotensin II
# Control compound: Angiotensin II (human)
# (Displacer): Angiotensin II (human)
# [2] = system: rats with renal diseases; assay: Hypotensive action in rats with experimental renal disease (tail cuff); assay type: in vivo, rats (female Sprague-Dawley)
# Procedure: The compounds of the present invention and a comparative compound, Dup 753, were orally administered by gavage to rats with renal diseases and hypotensive action was determined. Rats with experimental renal disease were prepared with conventional method by ligating branch of renal artery. That is, female Sprague-Dawley rats were anesthetized, left renal hilus was exposed and three of four second branches of renal artery were ligated remaining one branch. One week later, further right renal hilus including artery, vein and ureter was ligated to reduce renal function up to about 1/8 to those of normal animals. Rats were divided to make eight animals in one group, and 20 mg/kg of one test compound and water as a control were administered to each group. After two days, systolic blood pressure was determined with a blood pressure determination apparatus using tail cuff method (UR5000, Ueda Manufacturing Co., Ltd.).
# [3] = system: angiotensin II receptor; conditions: cited from earlier work
compound,measurement,setting,value
"CCCCc1nc(Cl)c(CO)n1Cc1ccc(-c2ccccc2-c2nnn[nH]2)cc1 [DuP753, 2-butyl-4-chloro-5-(hydroxymethyl)-1-[[2'-(1H-tetrazol-5-yl)biphenyl-4-yl]methyl]imidazole]",inhibition at 100 µM,[1],0%
same,Blood pressure (average systolic),"[2]; 20 mg/kg oral gavage, after two days, control (water) 210",130 mmHg
same,effect on blood pressure (in words),"[2]; 20 mg/kg oral, compared with control group",marked hypotension
same,antagonistic action to angiotensin II receptor (in words),[3],potent antagonistic action to angiotensin II receptor
